Experimental data from the NIST ThermoML archive (doi:10.1016/j.fluid.2011.02.002).
“And” between values parts separate entries of the source, which are not always exact repeats. Identical values can stand only once.

Experiments:
[1] = molar heat capacity at constant pressure; settings: 101.33 kPa, Liquid, Small sample (50 mg) DSC
[2] = Closed cell (Static) method

O=S1(=O)CCCC1 [sulfolane]
[1]
Settings	molar heat capacity at constant pressure
304.04 K	179.5 J/K/mol and 179.9 J/K/mol
309.14 K	181.3 J/K/mol
309.15 K	181.6 J/K/mol
314.25 K	182.6 J/K/mol and 183.8 J/K/mol
319.35 K	184.7 J/K/mol and 184.5 J/K/mol
324.46 K	185.3 J/K/mol and 184.4 J/K/mol
329.56 K	187.4 J/K/mol and 186.6 J/K/mol
334.66 K	188.7 J/K/mol
334.67 K	187.9 J/K/mol
339.77 K	189.7 J/K/mol and 188.5 J/K/mol
344.88 K	190.2 J/K/mol
349.98 K	192.5 J/K/mol and 192 J/K/mol
355.09 K	193.4 J/K/mol and 192.3 J/K/mol

[2], Liquid
Settings	vapor or sublimation pressure
302.16 K	0.00146 kPa
303.17 K	0.00155 kPa and 0.00158 kPa
305.17 K	0.00188 kPa and 0.00187 kPa
306.17 K	0.00203 kPa
307.17 K	0.00223 kPa and 0.00224 kPa and 0.0022 kPa
308.17 K	0.00241 kPa and 0.0024 kPa

C[S+](C)[O-] [dimethyl sulfoxide]
[2]
Settings	vapor or sublimation pressure
273.65 K, Crystal	0.00789 kPa
275.65 K, Crystal	0.00979 kPa
278.15 K, Crystal	0.01278 kPa and 0.01277 kPa and 0.01275 kPa
280.64 K, Crystal	0.01655 kPa
280.65 K, Crystal	0.01656 kPa
283.15 K, Crystal	0.02138 kPa and 0.02137 kPa
285.65 K, Crystal	0.02752 kPa and 0.02751 kPa
288.15 K, Crystal	0.03531 kPa and 0.03525 kPa
290.65 K, Crystal	0.04487 kPa and 0.04486 kPa
293.15 K, Liquid	0.05512 kPa and 0.05509 kPa and 0.0551 kPa
295.65 K, Liquid	0.06631 kPa and 0.06632 kPa and 0.06633 kPa
298.15 K, Liquid	0.07965 kPa and 0.07966 kPa and 0.07964 kPa
300.65 K, Liquid	0.09517 kPa and 0.09518 kPa
303.16 K, Liquid	0.1134 kPa
305.66 K, Liquid	0.1346 kPa
308.16 K, Liquid	0.1592 kPa
